Ends that are not written are not given here. A value given as a limit tells only on which side of the number the result lay.

Test [1] concerns Pectobacterium carotovorum ssp. carotovorum. As to conditions: Table 4, incubation period 1d; LB-medium, 27°C.
Test [2] has as its system Pseudomonas corrugata. As to conditions: Table 4, incubation period 2d; LB-medium, 27°C.
Test [3] relates to Pseudomonas syringae pv. tomato. The conditions noted are these: Table 4, incubation period 1d; LB-medium, 27°C.
Test [4] deals with Clavibacter michiganensis ssp. michiganensis. As to conditions: Table 4, incubation period 2d; LB-medium, 27°C.
For test [5], the system named is Xanthomonas vesicatoria. As to conditions: Table 4, incubation period 2d; LB-medium, 27°C.
Test [6] relates to Pseudomonas syringae pv. syringae. The conditions noted are these: Table 4, incubation period 1d; LB-medium, 27°C.

Regarding RKKKAKIIKKII-NH2 [SP1-10], the MIC in test [1] was >10 mg/L; in test [2], 10 mg/L; in test [3] it was >10 mg/L; in test [4] it was >10 mg/L; in test [5] it was >10 mg/L; in test [6] it was 1.0 mg/L.

As for KRRKAIKILKLIAKAIRKKR-NH2 [SP13-9], the MIC in test [1] was >10 mg/L; in test [2], 0.25 mg/L; in test [3], >10 mg/L; in test [4], 0.25 mg/L; in test [5], 0.1 mg/L; in test [6], >10 mg/L.

With RKKRKKLIKRLI-NH2 [SP1-19], the MIC in test [1] is >10 mg/L; in test [2], 0.5 mg/L; in test [3] it was >10 mg/L; in test [4] it was 5.0 mg/L; in test [5], 5.0 mg/L; in test [6] it was <0.1 mg/L.

As to RKKRVKLLKRLV-NH2 [SP1-2], the MIC was >10 mg/L in test [1]; 0.5 mg/L in test [2]; 5.0 mg/L in test [3]; 10 mg/L in test [4]; 5.0 mg/L in test [5]; 2.5 mg/L in test [6].

In the case of KRRKAIKILKLIAKLIRKKR-NH2 [SP13-8], the MIC in test [1] was >10 mg/L; in test [2], 0.25 mg/L; in test [3], 10 mg/L; in test [4] it was 0.1 mg/L; in test [5], 0.1 mg/L; in test [6], >10 mg/L.

As for LRILRRLLRRLF-NH2 [SP10-7], the MIC in test [1] was >10 mg/L; in test [2], 2.5 mg/L; in test [3], 1.0 mg/L; in test [4], 5.0 mg/L; in test [5] it was 5.0 mg/L; in test [6], >10 mg/L.

For the substance KRRKLAFRAFRFALKAVLKK-NH2 [SP13-13], the MIC in test [1] is >10 mg/L; in test [2], 0.25 mg/L; in test [3], 2.5 mg/L; in test [4] it was 0.5 mg/L; in test [5], 0.25 mg/L; in test [6], 0.5 mg/L.

Regarding LRFLKKILKKLF-NH2 [SP10-1], the MIC in test [1] came out at 2.5 mg/L; in test [2], 2.5 mg/L; in test [3] it was 1.0 mg/L; in test [4], 1.0 mg/L; in test [5], 2.5 mg/L; in test [6], 2.5 mg/L.

For RKKRLRVVRRLV-NH2 [SP1-5], the MIC in test [1] is >10 mg/L; in test [2] it was 5.0 mg/L; in test [3], 1.0 mg/L; in test [4] it was >10 mg/L; in test [5], >10 mg/L; in test [6] it was >10 mg/L.

Take RKKRKKLLKRLI-NH2 [SP1-20]: the MIC in test [1] is >10 mg/L; in test [2], 0.5 mg/L; in test [3], 10 mg/L; in test [4], 5.0 mg/L; in test [5] it was 10 mg/L; in test [6], 0.25 mg/L.

For KKKKKKIIKKII-NH2 [SP1-22], the MIC in test [1] was >10 mg/L; in test [2], >10 mg/L; in test [3], 1.0 mg/L; in test [4], >10 mg/L; in test [5], >10 mg/L; in test [6] it was 2.5 mg/L.

As to RKKKLKFFKRLF-NH2 [SP1-11], the MIC in test [1] is >10 mg/L; in test [2] it was 0.25 mg/L; in test [3], >10 mg/L; in test [4], 2.5 mg/L; in test [5] it was 2.5 mg/L; in test [6] it was 1.0 mg/L.

Take RKKKIKIIKRLI-NH2 [SP1-8]: the MIC in test [1] was >10 mg/L; in test [2] it was 2.5 mg/L; in test [4], 5.0 mg/L; in test [5], 2.5 mg/L; in test [6], 0.25 mg/L.

In the case of KRRLILRILRLAIRILVKKR-NH2 [SP13-3], the minimum inhibitory concentration (MIC) in test [1] was >10 mg/L; in test [2], >10 mg/L; in test [3], 10 mg/L; in test [4] it was 2.5 mg/L; in test [5], 2.5 mg/L; in test [6] it was >10 mg/L.

RKKKIKIIKKII-NH2 [SP1-9]: the MIC is >10 mg/L in test [1]; 5.0 mg/L in test [2]; 5.0 mg/L in test [3]; 2.5 mg/L in test [4]; 2.5 mg/L in test [5]; 0.5 mg/L in test [6].

For the substance KKKKIIKRLI-NH2 [SP1-17], the MIC in test [1] is >10 mg/L; in test [2], 5.0 mg/L; in test [3] it was 1.0 mg/L; in test [4], >10 mg/L; in test [5], >10 mg/L; in test [6], <0.1 mg/L.

Turning to RKKKLKIIKRLI-NH2 [SP1-7], the minimum inhibitory concentration (MIC) was >10 mg/L in test [1]; 0.5 mg/L in test [2]; 2.5 mg/L in test [4]; 1.0 mg/L in test [5]; 0.1 mg/L in test [6].

With RKKRLKVVKRLV-NH2 [SP1-4], the MIC is >10 mg/L in test [1]; >10 mg/L in test [2]; 2.5 mg/L in test [3]; >10 mg/L in test [4]; >10 mg/L in test [5]; 5.0 mg/L in test [6].

Regarding LRIIRRILRRLI-NH2 [SP10-6], the MIC is 2.5 mg/L in test [1]; 2.5 mg/L in test [2]; 1.0 mg/L in test [3]; 2.5 mg/L in test [4]; 1.0 mg/L in test [5]; 2.5 mg/L in test [6].

As to RKKKLKVVKRLV-NH2 [SP1-6], the MIC is >10 mg/L in test [1]; >10 mg/L in test [2]; 1.0 mg/L in test [3]; 10 mg/L in test [4]; >10 mg/L in test [5]; 5.0 mg/L in test [6].

On to KRRILIRILKLIIKLILKKR-NH2 [SP13-5], for which the MIC in test [1] is >10 mg/L; in test [2], 10 mg/L; in test [3], 2.5 mg/L; in test [4], 2.5 mg/L; in test [5], 1.0 mg/L; in test [6] it was >10 mg/L.

For the substance KRRKLAFRLFRLFLKLVLKK-NH2 [SP13-14], the MIC in test [1] is >10 mg/L; in test [2] it was 2.5 mg/L; in test [3], 2.5 mg/L; in test [4], 0.5 mg/L; in test [5], 0.25 mg/L; in test [6], 5.0 mg/L.

As for RKKKFKIFKRLF-NH2 [SP1-14], the MIC was >10 mg/L in test [1]; 0.5 mg/L in test [2]; 1.0 mg/L in test [3]; 1.0 mg/L in test [4]; 1.0 mg/L in test [5]; <0.1 mg/L in test [6].

For the substance KRRKLIKILKLIAKLIRKKR-NH2 [SP13-7], the MIC in test [1] was >10 mg/L; in test [2], 0.5 mg/L; in test [3], 10 mg/L; in test [4] it was 0.25 mg/L; in test [5], 0.1 mg/L; in test [6], >10 mg/L.

For the origin of these results see paper PMC3741113, “De-Novo Design of Antimicrobial Peptides for Plant Protection” (PLoS ONE, 2013).
